The nature of the data set: gradient 5% acetonitrile 3 min, to 50% in 2 min, to 85% in 15 min, held 3 min, 100 µL/min. Conditions: column: Zorbax Extend-C18 2.1 x 50 mm; eluents: water / acetonitrile, 0.1% formic acid. The procedure, abridged:
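Pure standards were run in mixtures of ~100 molecules by HPLC coupled to a quadrupole time-of-flight mass spectrometer. The column was a Zorbax Extend-C18 (2.1 × 50 mm, 1.8 μm) at 100 μL/min, with water and acetonitrile each containing 0.1% formic acid, in positive and negative ionization mode. Dead and dwell volumes were 40 μL and 900 μL. Retention time was taken from computationally picked adduct peaks, each manually inspected, with data collected over 3 months.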
Take `CCCNC(=O)c1cccc2c1CCN2C(C)=O`: the RP-LC retention time is 633 s.

Molecule `CCc1ccc(Oc2cc(N3CCC(C(=O)NCCCc4ccccc4)CC3)ncn2)cc1` showed an RP-LC retention time of 1080 s.

As to `Cc1ccc(NC(=O)N2CCC(N3CCN(Cc4ccccn4)C(=O)C3=O)CC2)c(Cl)c1`, the RP-LC retention time was 876 s.

`O=S(=O)(c1cc(Cl)ccc1Cl)N1CCc2nc(-c3ccccc3)ncc2C1` yielded an RP-LC retention time of 1180 s.

In the case of `Cc1cc2nn(CC(=O)NC3CCCCC3)c(=O)n2c(Nc2ccc(F)cc2)n1`, the RP-LC retention time amounted to 909 s.

In turn, `CCNc1cc(N2CCC(CCC(=O)NC(CC)CC)CC2)ncn1` showed an RP-LC retention time of 639 s.

The molecule `O=C(COc1cc(O)c2c(=O)cc(-c3ccccc3)oc2c1)OCc1ccccc1` registered an RP-LC retention time of 1200 s.

`CCc1nc(-c2ccnc(N3CCCC3)c2)no1` displayed an RP-LC retention time of 616 s.

The molecule `COc1ccc(C(=O)NCc2c(C)noc2C)cn1` yielded an RP-LC retention time of 633 s.

For the molecule `Clc1cccc(-c2nc(-c3ccc(-n4ccnc4)nc3)no2)c1`, the RP-LC retention time was determined as 815 s.

Consider `COc1ccc(C2(CNC(=O)CCc3c(C)noc3C)CCOCC2)cc1`, for which the RP-LC retention time was 660 s.

`Cc1cccc(CN2CC(c3noc(C4CCCN4CC4CC4)n3)C2)c1` (stereo not given) registered an RP-LC retention time of 526 s.

In turn, `CCOC(=O)c1cccc(NC(=O)Cn2c(C)nc3c(sc4nc(-c5ccccc5)ccc43)c2=O)c1` had an RP-LC retention time of 1090 s.

`COc1ccccc1NS(=O)(=O)c1cc2c3c(c1)CCC(=O)N3CCC2` yielded an RP-LC retention time of 799 s.

Molecule `Oc1c(CN2CCN(c3ccccc3)CC2)cc(Br)c2cccnc12` had an RP-LC retention time of 830 s.

For `COC(=O)c1ccc(NC(=O)N2CCCC2c2c(C)noc2C)cc1` (stereo not given), the RP-LC retention time amounted to 751 s.

In turn, `CC(=O)NCCc1csc(C2CCCN(C(=O)C3CCOC3)C2)n1` (stereo not given) had an RP-LC retention time of 603 s.

With `Cc1cc(C(=O)N(C)C2CCc3nnc(C)n3CC2)c(C)n1Cc1ccco1` (stereo not given), the RP-LC retention time turned out to be 654 s.

With `COc1cccc(CNC(=O)C2=C3CCCN3c3ccccc3S2(=O)=O)c1`, the RP-LC retention time amounted to 811 s.

Consider `CCn1c(=O)c(C(=O)NCc2ccc(F)cc2)nc2cccnc21`, for which the RP-LC retention time worked out at 790 s.

The molecule `CCC(=O)Nc1c(C)noc1/C=C\c1ccc(S(=O)(=O)Nc2ccc(S(N)(=O)=O)cc2)cc1` yielded an RP-LC retention time of 695 s.

`Cc1[nH]c(C(=O)N2CCC(CC(=O)N3CCOCC3)CC2)c(C)c1C(=O)OC(C)C`: the RP-LC retention time turned out to be 702 s.

Regarding `Cc1ccc(NC(=O)CCc2ccc3nc[nH]c3c2)cc1Cl`, the RP-LC retention time is 646 s.

In turn, `O=C(OCc1ccncc1)c1cn(-c2ccc(F)cc2)c(=O)c2ccccc12` showed an RP-LC retention time of 703 s.

Molecule `Cc1sc(-c2cc(C(F)(F)F)[nH]n2)cc1S(=O)(=O)N1CCN(c2ccc(Cl)cc2)CC1` yielded an RP-LC retention time of 1180 s.

Molecule `COc1ccc(NC(=O)CSc2nc(N3CCCCC3)nc3ccccc23)cc1Cl` showed an RP-LC retention time of 756 s.

For the molecule `O=C(NC1CCCCC1)C1(CCO)CC12CCN(c1ncccn1)CC2` (stereo not given), the RP-LC retention time worked out at 651 s.

Consider `Cc1nc2cc(N3CCCC(C(=O)N4CCCCCC4)C3)cnc2nc1C` (stereo not given), for which the RP-LC retention time was determined as 653 s.

`COc1ccc(-n2c(C)nc3ccc(NC(=O)C4CC4)cc3c2=O)cc1` had an RP-LC retention time of 683 s.

`CN(C)S(=O)(=O)c1ccc2c(c1)N(CC(=O)Nc1ccccn1)C(=O)C1CCCCN21` (stereo not given) returned an RP-LC retention time of 795 s.

Take `O=C(O)c1ccccc1SC1CC(=O)N(c2ccccc2OC(F)F)C1=O` (stereo not given): the RP-LC retention time came to 741 s.

`O=C(NC1CCCCCCC1)C1CC(=O)N(CCc2c[nH]c3ccc(Cl)cc23)C1` (stereo not given) came in with an RP-LC retention time of 732 s.

`O=C(Cn1nc2c(N3CCCCCC3)nccn2c1=O)Nc1ccccc1F` yielded an RP-LC retention time of 682 s.

`CS(=O)(=O)c1ccc(-c2ccc(NC(=O)c3cccs3)cc2)nn1` had an RP-LC retention time of 698 s.

In turn, `CCOC(=O)C1CCN(C(=O)Cn2cnc3nc4c(cc3c2=O)CCCC4)CC1` registered an RP-LC retention time of 678 s.

As for `CCCc1noc(-c2cccn3c(CC(=O)N4CCSCC4)nnc23)n1`, the RP-LC retention time is 653 s.

For `COc1ccc(Cl)cc1NC(=O)Cn1nc2cc(-c3ccccc3)nc(C)n2c1=O`, the RP-LC retention time worked out at 974 s.

In the case of `CN(CC(=O)NC1CCCCC1)S(=O)(=O)c1c[nH]c(C(=O)N2CCCC2)c1`, the RP-LC retention time amounted to 722 s.

The molecule `CC(C)n1cnnc1CC1CN(C(=O)Nc2ccccc2F)C1` had an RP-LC retention time of 608 s.

`O=S(=O)(NCCCCN1CCOC(c2ccccc2)C1)c1ccc(F)cc1F` (stereo not given): the RP-LC retention time came out at 584 s.

As for `CNC(=O)c1ccc(N2CCCN(Cc3ccccc3C)C2=O)cc1`, the RP-LC retention time is 700 s.

In the case of `O=C(CCC(=O)N1CC2CCCN2c2ccccc21)NCc1ccco1` (stereo not given), the RP-LC retention time stood at 1090 s.

Molecule `Cc1ccc(-c2csc(NC(=O)C(C)(C)C)n2)cc1` displayed an RP-LC retention time of 1080 s.

In turn, `CCc1onc(C)c1C1CCCN1Cc1cc(OC)c(O)c(OC)c1` (stereo not given) displayed an RP-LC retention time of 587 s.

In the case of `Cc1ccc(Cl)cc1N1C(=O)CN(S(C)(=O)=O)CC1(C)C(=O)NC1CCCCCCC1` (stereo not given), the RP-LC retention time came to 980 s.

`C=C1C(=O)O[C@@H]2[C@H]3O[C@]3(C)CCC=C(C)CC[C@@H]12` came in with an RP-LC retention time of 844 s.

`Cc1ccc(-c2nccn3cc(C(=O)N4CCN(C(C)C)CC4)nc23)cc1` displayed an RP-LC retention time of 620 s.

`CC(C)c1ccc(C2C(C(=O)c3ccccc3)C(=O)C(=O)N2CCCN2CCOCC2)cc1` (stereo not given) came in with an RP-LC retention time of 725 s.

With `Cc1cc(C)nc(Nc2nc(C(=O)O)cs2)n1`, the RP-LC retention time stood at 626 s.

`CCc1nnc2cc(N3CCN(C(=O)Nc4ccc(C)cc4)CC3)cnn12` had an RP-LC retention time of 649 s.

`CCOC(=O)C1CCN(C(=O)C2CCCN(c3ccc(-c4ccc(C)c(C)c4)nn3)C2)CC1` (stereo not given) came in with an RP-LC retention time of 761 s.

`O=C(C1CCC1)N1CCCC(CN2CCOCC2)CC1` (stereo not given): the RP-LC retention time came to 574 s.

`CC1(c2noc(C3CC3)n2)CCN(C(=O)C2CCN(S(=O)(=O)N3CCOCC3)CC2)CC1` yielded an RP-LC retention time of 784 s.

In turn, `COc1ccc(NC(=O)Cn2cnc3c(sc4nc(-c5ccccc5)ccc43)c2=O)c(OC)c1` showed an RP-LC retention time of 991 s.

`CCOc1ccccc1CNC1CCN(c2ccc(C(=O)NC3CC3)cn2)C1` (stereo not given): the RP-LC retention time came out at 579 s.

`Cc1ccccc1-n1c(=O)c2sccc2n(Cc2nc(-c3ccc(Cl)c(F)c3)no2)c1=O`: the RP-LC retention time amounted to 1120 s.

Take `Cc1nn(CC(=O)NCCCN2CCCCC2)c(=O)c2nc(-c3ccccc3)sc12`: the RP-LC retention time stood at 627 s.

The molecule `CCSc1nnc(NC(=O)CSc2nn3c(=O)c(C)nnc3s2)s1` yielded an RP-LC retention time of 640 s.

With `O=C(NC(c1ccccc1)c1nnc(N2CCCCC2)o1)C1CCCCC1` (stereo not given), the RP-LC retention time was determined as 878 s.

The molecule `Cc1ccc(S(=O)(=O)NCC2CN(C(C)C)CC23CCCCC3)c(C)c1` (stereo not given) showed an RP-LC retention time of 738 s.

With `COc1ccc(NC(=O)Cn2c(=O)c(CCC(=O)NCC(C)C)nc3ccccc32)cc1`, the RP-LC retention time is 798 s.

Molecule `O=C(NCc1ccc2c(c1)OCO2)C1CCN(C(=O)c2cc(-c3cccnc3)n[nH]2)CC1` gave an RP-LC retention time of 656 s.

As for `Cc1noc(C)c1S(=O)(=O)N1CC(c2nc(Cc3cccnc3)no2)C1`, the RP-LC retention time turned out to be 588 s.

`CCCn1ccc2sc(C)c(C(=O)NCc3cccc(OCC)c3)c2c1=O` had an RP-LC retention time of 939 s.

On to `C[C@]12CCC3[C@@H](CC[C@@H]4C[C@H](O)CC[C@]34C)[C@@H]1CCC2=O` (stereo not given in full), for which the RP-LC retention time stood at 992 s.

Turning to `Cc1cc(=O)n(CC(=O)NCc2ccc(F)cc2Cl)c(N)n1`, the RP-LC retention time came out at 861 s.

`CCC(=O)N1CCCC1c1nc2ccccc2n1CC(=O)N1CCCC1` (stereo not given) registered an RP-LC retention time of 584 s.

Molecule `CCCn1cc(C(=O)Nc2ccc(C)cc2)c(S(=O)(=O)N2CCSCC2)n1` displayed an RP-LC retention time of 1090 s.

The molecule `O=C(Cn1c(=O)n(-c2ccc(F)cc2)c2ncccc21)NCCN1CCCCCC1` gave an RP-LC retention time of 625 s.

Molecule `O=C(c1c(F)cccc1F)N1CCC2(CC1)N=C(c1ccc(Cl)cc1)NO2` gave an RP-LC retention time of 847 s.

In turn, `Cc1ccc2c(Nc3cccc(Cl)c3)c(C(=O)N3CCSCC3)cnc2n1` registered an RP-LC retention time of 654 s.

The molecule `Cn1ccc2cc(S(=O)(=O)N3CCCC(C(=O)NC4CCCCCCC4)C3)ccc21` (stereo not given) displayed an RP-LC retention time of 1080 s.

For the molecule `O=C(Nc1ccc2c(c1)OCCO2)C1CCN(c2cc(N3CCCCC3)ncn2)CC1`, the RP-LC retention time worked out at 667 s.

For the molecule `CC(C)c1ccc(NC(=O)CN2C(=O)C3CCCCN3c3ccc(C(=O)N4CCOCC4)cc32)cc1` (stereo not given), the RP-LC retention time amounted to 909 s.

On to `COc1ccc(NC(=O)CSc2nccnc2Sc2ccc(C)cc2)cc1OC`, for which the RP-LC retention time came to 997 s.

The molecule `O=C(NCc1n[nH]c(=O)c2ccccc12)C(=O)N1CCN(c2ccccc2)CC1` yielded an RP-LC retention time of 658 s.

In turn, `Cc1ccc(CN2CCNCC2)cc1NC(=O)CNc1ccc(F)c(F)c1` had an RP-LC retention time of 639 s.

Take `CCCS(=O)(=O)N1CCCC(C)(C(=O)NCc2ccc(OC)cc2)C1` (stereo not given): the RP-LC retention time was 798 s.

Molecule `CCc1ccc(NC(=O)C2CCCN2S(=O)(=O)c2ccc3c(c2)NC(=O)CO3)cc1` (stereo not given) showed an RP-LC retention time of 859 s.

`CCCCOc1ccc(C(=O)N2CCN(c3nc4ccncc4n(C)c3=O)CC2)cc1` came in with an RP-LC retention time of 702 s.
